In data set [1] the target is T1, SARS-CoV-2 Mpro (Severe acute respiratory syndrome coronavirus 2, UniProt P0DTD1). The data set can be described thus: SARS-CoV-2 Mpro enzyme assay (FRET). It counts as biochemical. Particulars: 20 nM Mpro, 30 min preincubation at 30° C., mean n=2, read-out: SARS-CoV-2 Mpro enzyme pKi assay pKi (converted).
The test system of data set [2] is P-glycoprotein (P-gp, MDR1). As to the kind of experiment: MDCK-MDR1 permeability and P-gp substrate assay. It counts as in vitro ADME, canine. Particulars: dog, pH 7.4, MDCK-MDR1, apical to basolateral, without P-gp inhibitor. As for the experimental part: Permeability and drug efflux of certain example compounds was investigated using the following assay.
Test compound was added to either the apical side of a confluent monolayer of MDCK-MDR1 (Madin-Darby canine kidney cells stably transfected to express active P-glycoprotein) and permeability was measured by monitoring the appearance of the test compound on the basolateral side of the monolayer using LC-MS/MS. Experiments were performed in the absence and presence of a P-glycoprotein (P-gp) inhibitor elacridar (2 μM) to determine whether the compound was subject to P-gp mediated efflux.
MDCK-MDR1 cells obtained from the NIH (Rockville, MD, USA) were used between passage numbers 6-30. […]
For assessment of A-B permeability, HBSS was removed from the apical compartment and replaced with test compound dosing solution or test compound plus P-gp inhibitor dosing solutions. […] Test compound permeability was assessed in duplicate. […]
Test and control compounds were quantified by LC-MS/MS cassette analysis using a 7-point calibration with appropriate dilution of the samples. The starting concentration (C0) was determined from the dosing solution and the experimental recovery calculated from C0 and both apical and basolateral compartment concentrations.
The permeability coefficient (Papp) for each compound in the absence and presence of a P-gp inhibitor was calculated from the following equation: […]

In data set [3] the target is T1, SARS-CoV-2 Mpro. The data set can be described thus: Modified SARS-CoV-2 Mpro enzyme assay (FRET, kinetic read) for reference examples. It counts as biochemical. Particulars: 5 nM Mpro, 20 min preincubation at room temperature, mean n=2, set out in PCT/GB2022/050836, read-out: SARS-CoV-2 Mpro enzyme pKi assay pKi (converted).
The conditions of data set [4]: Pedersen et al.; cited from earlier work.
The subject of a further data set is SARS-CoV-2 infection. Particulars: approved in selected countries for limited use; Zhou et al.; cited from earlier work.
In data set [5] the test system is ten further coronavirus strains. Particulars: read-out: Ki values against ten further coronavirus strains; cited from earlier work.
The test system of a further data set is live virus. Particulars: cited from earlier work.

pKi: −log10 of the molar value. A value given as a limit tells only on which side of the number the result lay.

Broadly, the Papp A→B is how fast a substance crosses the layer from the apical side. High values mean fast passage, low ones slow passage. Turning to `CC(C)(C)[C@H](NC(=O)C(F)(F)F)C(=O)N1C[C@H]2[C@@H]([C@H]1C(=O)NC(C[C@@H]1CCNC1=O)C(=O)C(=O)NC1CC1)C2(C)C` (stereo partly drawn) [Example 1, (1R,2S,5S)-N-(4-(cyclopropylamino)-3,4-dioxo-1-((S)-2-oxopyrrolidin-3-yl)butan-2-yl)-3-((S)-3,3-dimethyl-2-(2,2,2-trifluoroacetamido)butanoyl)-6,6-dimethyl-3-azabicyclo[3.1.0]hexane-2-carboxamide], the Ki at SARS-CoV-2 Mpro [1] is 3.98 nM. The compound also had a Papp A→B at 60 min, 1 μM in data set [2] of 0.9 ×10⁻⁶ cm/s.
As for `CNC(=O)C(=O)C(CC1CC1)NC(=O)[C@@H]1[C@@H]2[C@H](CN1C(=O)[C@@H](NC(=O)C(F)(F)F)C(C)(C)C)C2(C)C` (stereo partly drawn) [Example 2, (1R,2S,5S)-N-[1-(cyclopropylmethyl)-3-(methylamino)-2,3-dioxo-propyl]-3-[(2S)-3,3-dimethyl-2-[(2,2,2-trifluoroacetyl)amino]butanoyl]-6,6-dimethyl-3-azabicyclo[3.1.0]hexane-2-carboxamide], the Ki at SARS-CoV-2 Mpro [1] was 20 nM. This compound also came in with a Papp A→B at 60 min, 1 μM in data set [2] of 2.2 ×10⁻⁶ cm/s.
In the case of `CC(C)[C@H](NC(=O)C(F)(F)F)C(=O)N1C[C@H]2[C@@H]([C@H]1C(=O)NC(CC1CC1)C(=O)C(N)=O)C2(C)C` (stereo partly drawn) [Example 3, (1R,2S,5S)-N-[3-amino-1-(cyclopropylmethyl)-2,3-dioxo-propyl]-6,6-dimethyl-3-[(2S)-3-methyl-2-[(2,2,2-trifluoroacetyl)amino]butanoyl]-3-azabicyclo[3.1.0]hexane-2-carboxamide], at SARS-CoV-2 Mpro [1], the Ki was 63.1 nM.
For `CC(C)(C)[C@H](NC(=O)C(F)(F)F)C(=O)N1C[C@H]2[C@@H]([C@H]1C(=O)NC(CC1CCC1)C(=O)C(N)=O)C2(C)C` (stereo partly drawn) [Example 4, (1R,2S,5S)-N-[3-amino-1-(cyclobutylmethyl)-2,3-dioxo-propyl]-3-[(2S)-3,3-dimethyl-2-[(2,2,2-trifluoroacetyl)amino]butanoyl]-6,6-dimethyl-3-azabicyclo[3.1.0]hexane-2-carboxamide], the Ki on SARS-CoV-2 Mpro [1] is 79.4 nM.
For `CC(C)C(=O)N[C@H](C(=O)N1C[C@H]2[C@@H]([C@H]1C(=O)NC(C[C@@H]1CCNC1=O)C(=O)C(=O)NC1CC1)C2(C)C)C(C)(C)C` (some centres unmarked) [Example 5], the Ki on SARS-CoV-2 Mpro [1] is 15.8 nM.
The same measure, in the same setting: for `CC(C)(C)[C@H](NC(=O)C(F)(F)F)C(=O)N1C[C@H]2[C@@H]([C@H]1C(=O)NC(C[C@H]1CCCNC1=O)C(=O)C(=O)NC1CC1)C2(C)C` (stereo partly drawn) [Example 6, (1R,2S,5S)-N-[3-(cyclopropylamino)-2,3-dioxo-1-[[(3R)-2-oxo-3-piperidyl]methyl]propyl]-3-[(2S)-3,3-dimethyl-2-[(2,2,2-trifluoroacetyl)amino]butanoyl]-6,6-dimethyl-3-azabicyclo[3.1.0]hexane-2-carboxamide] the value was 10 nM.
Regarding `CC1(C)[C@@H]2[C@@H](C(=O)NC(C[C@@H]3CCNC3=O)C(=O)C(=O)NC3CC3)N(C(=O)/C=C/c3ccc(F)cc3F)C[C@@H]21` (stereo partly drawn) [Example 7, (1R,2S,5S)-N-(4-(cyclopropylamino)-3,4-dioxo-1-((S)-2-oxopyrrolidin-3-yl)butan-2-yl)-3-((E)-3-(2,4-difluorophenyl)acryloyl)-6,6-dimethyl-3-azabicyclo[3.1.0]hexane-2-carboxamide], the Ki at SARS-CoV-2 Mpro [1] is 63.1 nM.
Consider `CC(C)C(=O)N[C@H](C(=O)N1C[C@H]2[C@@H]([C@H]1C(=O)NC(CC1CC1)C(=O)C(=O)C#N)C2(C)C)C(C)(C)C` (some centres unmarked) [Example 27], for which the Ki at SARS-CoV-2 Mpro [3] was over 5010 nM.
Regarding `CC(C)C[C@H](NC(=O)OCc1ccccc1)C(=O)N[C@@H](C[C@@H]1CCNC1=O)C(O)S(=O)(=O)[O-].[Na+]` (some centres unmarked) [GC376], in data set [4], the “Side effects in trials performed in cats” value is listed as “side effects”.
Turning to `NC(=O)c1nc(F)c[nH]c1=O` [favipiravir], in the data set with SARS-CoV-2 infection, the “Effect in treatment of SARS-CoV-2 infection” value is on record as “modest effects”.
Broadly, the pKi is the Ki on a negative log10 scale, so that one unit is a factor of ten. For PF-00835231, in data set [5], the pKi was 8.40 to 10.52. Moreover, the “Activity in cell-based live virus assays” value with live virus was about 1 µM.

The values above are taken from patent US20260109672A1, “SARS-COV-2 MPRO INHIBITORS AND USES THEREOF” (NXERA PHARMA UK LIMITED, priority 2022, published 2026).
